Assay results taken from patent publication US6573275B1, “Bicyclic amines” (Syngenta Limited, priority 1995, dated 2003).

system: peach aphid (Myzus persicae); test: Insecticidal test against peach aphid, infested Chinese cabbage leaves sprayed; format: in vivo; conditions: peach aphid (Myzus persicae) on Chinese cabbage leaves, sprayed with 500 ppm composition unless otherwise stated, mortality assessed after 3 days
Experimental: This Example illustrates the insecticidal properties of the compounds of Formula I. The activity of the compounds of Formula I was determined using a variety of pests. The pests were treated with a liquid composition containing 500 parts per million (ppm) by weight of the compound unless otherwise stated. The compositions were made by dissolving the compound in acetone and ethanol (50:50) mixture and diluting the solutions with water containing 0.05% by weight of a wetting agent sold under the trade name “SYNPERONIC” NP8 until the liquid composition contained the required concentration of the compound. “SYNPERONIC” is a Registered Trade Mark.
The test procedure adopted with regard to each pest was basically the same and comprised supporting a number of the pests on a medium which was usually a substrate, a host plant or a foodstuff on which the pests feed, and treating either or both the medium and the pests with the compositions. The mortality of the pests was then assessed at periods usually varying from two to five days after the treatment.
In this test Chinese cabbage leaves were infested with aphids, the infested leaves were sprayed with the test composition, and the mortality assessed after 3 days.

| SMILES | Score (grading of mortality) |
| --- | --- |
| CN1C2CCC1CC(C#N)(c1cncc(Cl)n1)C2 (stereo not drawn) [Compound 43, exo3-(6-chloropyrazin-2-yl)-endo-3-cyano-8-methyl-8-azabicyclo[3.2.1]octane] | A (A indicates 80-100% mortality) |
| CS(=O)(=O)CS(=O)(=O)N1C2CCC1CC(C#N)(c1cccnc1)C2 (stereo not drawn) [Compound 44, exo-3-(pyrid-3-yl)-endo-3-cyano-8-(methylsulphonylmethylsulphonyl)-8-azabicyclo[3.2.1]octane] | A (A indicates 80-100% mortality) |
| CS(=O)(=O)N1C2CCC1CC(C#N)(c1cccnc1)C2 (centres unmarked) [Compound 45] | C (C indicates less than 40% mortality) |
| CN1C2CCC1CC(C#N)(c1ccc(Cl)nc1)C2 (stereo not drawn) [Compound 46, exo-3-(6-chloropyrid-3-yl)-endo-3-cyano-8-methyl-8-azabicyclo[3.2.1]octane] | A (A indicates 80-100% mortality) |
| COCN1C2CCC1CC(C#N)(c1cccnc1)C2 (centres unmarked) [Compound 47] | A (A indicates 80-100% mortality) |
| CCOCN1C2CCC1CC(C#N)(c1cccnc1)C2 (centres unmarked) [Compound 48] | A (A indicates 80-100% mortality) |
| N#CCN1C2CCC1CC(C#N)(c1cccnc1)C2 (centres unmarked) [Compound 49] | A (A indicates 80-100% mortality) |
| CCOC(=O)CN1C2CCC1CC(C#N)(c1cccnc1)C2 (centres unmarked) [Compound 50] | A (A indicates 80-100% mortality) |
| COC(=O)CN1C2CCC1CC(C#N)(c1cccnc1)C2 (stereo not drawn) [Compound 51, exo-3-(pyrid-3-yl)-endo-3-cyano-8-(methoxycarbonylmethyl)-8-azabicyclo[3.2.1]octane] | A (A indicates 80-100% mortality) |
| CN1C2CCC1CC(C#N)(c1ccc([N+](=O)[O-])cc1F)C2 (centres unmarked) [Compound 52] | C (C indicates less than 40% mortality) |
| CN1C2CCC1CC(C#N)(c1cccc(F)c1)C2 (centres unmarked) [Compound 53] | A (A indicates 80-100% mortality) |
| N#CC1(c2cccnc2)CC2CCC(C1)N2CCO (centres unmarked) [Compound 54] | A (A indicates 80-100% mortality) |
| CN1C2CCC1CC(C#N)(c1cnc(Cl)c(Cl)c1)C2 (stereo not drawn) [Compound 55, exo-3-(5,6-dichloropyrid-3-yl)-endo-3-cyano-8-methyl-8-azabicyclo[3.2.1]octane] | A (A indicates 80-100% mortality) |
| C#CCN1C2CCC1CC(C#N)(c1cccnc1)C2 (centres unmarked) [Compound 56] | A (A indicates 80-100% mortality) |
| CN1C2CCC1CC(C#N)(c1cccnc1)C2 (centres unmarked) [Compound 57] | A (A indicates 80-100% mortality) |
| CC=CCN1C2CCC1CC(C#N)(c1cccnc1)C2 (centres unmarked) [Compound 58] | C (C indicates less than 40% mortality) |
| N#CC1(c2cc(F)cc(F)c2)CC2CCC(C1)N2c1ccc([N+](=O)[O-])cc1 (centres unmarked) [Compound 59] | A (A indicates 80-100% mortality) |
| CN1C2CCC1CC(C#N)(c1cncc(Cl)c1)C2 (stereo not drawn) [Compound 60, exo-3-(5-chloropyrid-3-yl)-endo-3-cyano-8-methyl-8-azabicyclo[3.2.1]octane] | A (A indicates 80-100% mortality) |
| N#CC1(c2cccnc2)CC2CCC(C1)N2c1ccccc1 (centres unmarked) [Compound 61] | A (A indicates 80-100% mortality) |
| CN1C2CCC1CC(C#N)(c1cnccn1)C2 (stereo not drawn) [Compound 62, exo-3-(pyrazin-2-yl)-endo-3-cyano-8-methyl-8-azabicyclo[3.2.1]octane] | A (A indicates 80-100% mortality) |
| CN1C2CCC1CC(C#N)(c1cc(Cl)nc(Cl)n1)C2 (stereo not drawn) [Compound 63, exo-3-(2,6-dichloropyrimid-4-yl)-endo-3-cyano-8-methyl-8-azabicyclo[3.2.1]octane] | C (C indicates less than 40% mortality) |
| N#CC1(c2cncc(Cl)c2)CC2CCC(C1)N2CCF (centres unmarked) [Compound 64] | A (A indicates 80-100% mortality) |
| CN1C2CCC1CC(C#N)(c1cc(Cl)nc(Cl)c1)C2 (stereo not drawn) [Compound 65, exo-3-(2,6-dichloropyrid-4-yl)-endo-3-cyano-8-methyl-8-azabicyclo[3.2.1]octane] | C (C indicates less than 40% mortality) |
| CN1[C@@H]2CC[C@H]1C[C@](C#N)(c1cc(Cl)nc(NN)c1)C2 [Compound 66, exo-3-(2-chloro-6-hydrazinopyrid-4-yl)-endo-3-cyano-8-methyl-8-azabicyclo[3.2.1]octane] | C (C indicates less than 40% mortality) |
| CN1C2CCC1CC(C#N)(c1ccncc1)C2 (stereo not drawn) [Compound 67, exo-3-(pyrid-4-yl)-endo-3-cyano-8-methyl-8-azabicyclo[3.2.1]octane] | A (A indicates 80-100% mortality) |

| SMILES | Score (grading of mortality) |
| --- | --- |
| CN1C2CCC1CC(C#N)(c1cncc(Br)c1)C2 (stereo not drawn) [Compound 68, exo-3-(5-bromopyrid-3-yl)-endo-3-cyano-8-methyl-8-azabicyclo[3.2.1]octane] | A (A indicates 80-100% mortality) |
| C=COC(=O)N1[C@@H]2CC[C@H]1C[C@](C#N)(c1cncc(Cl)c1)C2 [Compound 69, exo-3-(5-chloropyrid-3-yl)-endo-3-cyano-8-(vinyloxycarbonyl)-8-azabicyclo[3.2.1]octane] | A (A indicates 80-100% mortality) |
| N#CC1(c2cncc(Cl)c2)CC2CCC(C1)N2 (stereo not drawn) [Compound 70, exo-3-(5-chloropyrid-3-yl)-endo-3-cyano-8-azabicyclo[3.2.1]octane] | A (A indicates 80-100% mortality) |
| CN1C2CCC1CC(C#N)(c1cccc(Cl)n1)C2 (centres unmarked) [Compound 71] | A (A indicates 80-100% mortality) |
| N#C[C@@]1(c2cncc(Cl)c2)C[C@H]2CC[C@@H](C1)N2CC(F)(F)F [Compound 72, exo-3-(5-chloropyrid-3-yl)-endo-3-cyano-8-(2,2,2-trifluoroethyl)-8-azabicyclo[3.2.1]octane] | A (A indicates 80-100% mortality) |
| N#CC1(c2cc(F)cc(F)c2)CC2CCC(C1)N2c1ccccn1 (centres unmarked) [Compound 73] | C (C indicates less than 40% mortality) |
| N#CC1(c2cncc(Cl)c2)CC2CCC(C1)N2c1ccccc1 (centres unmarked) [Compound 74] | A (A indicates 80-100% mortality) |
| C#CCN1C2CCC1CC(C#N)(c1cncc(Cl)c1)C2 (centres unmarked) [Compound 75] | A (A indicates 80-100% mortality) |
| C=CCN1C2CCC1CC(C#N)(c1cncc(Cl)c1)C2 (stereo not drawn) [Compound 76, exo-3-(5-chloropyrid-3-yl)-endo-3-cyano-8-allyl-8-azabicyclo[3.2.1]octane] | A (A indicates 80-100% mortality) |
| COc1cncc(C2(C#N)CC3CCC(C2)N3C)c1 (stereo not drawn) [Compound 77, exo-3-(5-methoxypyrid-3-yl)-endo-3-cyano-8-methyl-8-azabicyclo[3.2.1]octane] | A (A indicates 80-100% mortality) |
| CCN1C2CCC1CC(C#N)(c1cncc(Cl)c1)C2 (centres unmarked) [Compound 78] | A (A indicates 80-100% mortality) |
| CCCCN1C2CCC1CC(C#N)(c1cncc(Cl)c1)C2 (centres unmarked) [Compound 79] | A (A indicates 80-100% mortality) |
| COc1cncc(C2(C#N)CC3CCC(C2)N3C)c1 (centres unmarked) [Compound 80] | A (A indicates 80-100% mortality) |
| CCCCCCN1C2CCC1CC(C#N)(c1cncc(Cl)c1)C2 (stereo not drawn) [Compound 81, exo-3-(5-chloropyrid-3-yl)-endo-3-cyano-8-(n-hexyl)-8-azabicyclo[3.2.1]octane] | A (A indicates 80-100% mortality) |
| N#CC1(c2cncc(Cl)c2)CC2CCC(C1)N2C(=O)Oc1ccccc1 (centres unmarked) [Compound 82] | A (A indicates 80-100% mortality) |
| N#CC1(c2cncc(Cl)c2)CC2CCC(C1)N2C(=O)OCC(Cl)(Cl)Cl (centres unmarked) [Compound 83] | A (A indicates 80-100% mortality) |
| CCOC(=O)N1C2CCC1CC(C#N)(c1cncc(Cl)c1)C2 (centres unmarked) [Compound 84] | A (A indicates 80-100% mortality) |
| N#CC1(c2cncc(Cl)c2)CC2CCC(C1)N2C(=O)OCC1c2ccccc2-c2ccccc21 (centres unmarked) [Compound 85] | A (A indicates 80-100% mortality) |
| CCOC(=O)CN1C2CCC1CC(C#N)(c1cncc(Cl)c1)C2 (centres unmarked) [Compound 86] | A (A indicates 80-100% mortality) |
| CC(C)N1C2CCC1CC(C#N)(c1cncc(Cl)c1)C2 (stereo not drawn) [Compound 87, exo-3-(5-chloropyrid-3-yl)-endo-3-cyano-8-isopropyl-8-azabicyclo[3.2.1]octane] | A (A indicates 80-100% mortality) |
| N#CC1(c2cncc(Cl)c2)CC2CCC(C1)N2C=CC(=O)C(F)(F)F (stereo not drawn) [Compound 88, exo-3-(5-chloropyrid-3-yl)-endo-3-cyano-8-(3-oxo-4,4,4-trifluorobut-1-en-1-yl)-8-azabicyclo[3.2.1]octane] | A (A indicates 80-100% mortality) |
| CC(OC(=O)N1C2CCC1CC(C#N)(c1cncc(Cl)c1)C2)C(Cl)(Cl)Cl (centres unmarked) [Compound 89] | C (C indicates less than 40% mortality) |
| C=CCOC(=O)N1C2CCC1CC(C#N)(c1cncc(Cl)c1)C2 (centres unmarked) [Compound 90] | A (A indicates 80-100% mortality) |
| N#CC1(c2cncc(Cl)c2)CC2CCC(C1)N2C(=O)OCc1ccccc1 (centres unmarked) [Compound 91] | A (A indicates 80-100% mortality) |
| N#CC1(c2cncc(Cl)c2)CC2CCC(C1)N2C(=O)OCCCl (centres unmarked) [Compound 92] | A (A indicates 80-100% mortality) |
